{"source": "patent US20210228560A1", "about": "(Centogene IP GmbH, priority 2011, published 2021)", "key": {"hexosaminidase A": {"biological_target": "T1, hexosaminidase A (Homo sapiens, UniProt P06865+P07686)", "T1 sequence (P06865 89-529)": "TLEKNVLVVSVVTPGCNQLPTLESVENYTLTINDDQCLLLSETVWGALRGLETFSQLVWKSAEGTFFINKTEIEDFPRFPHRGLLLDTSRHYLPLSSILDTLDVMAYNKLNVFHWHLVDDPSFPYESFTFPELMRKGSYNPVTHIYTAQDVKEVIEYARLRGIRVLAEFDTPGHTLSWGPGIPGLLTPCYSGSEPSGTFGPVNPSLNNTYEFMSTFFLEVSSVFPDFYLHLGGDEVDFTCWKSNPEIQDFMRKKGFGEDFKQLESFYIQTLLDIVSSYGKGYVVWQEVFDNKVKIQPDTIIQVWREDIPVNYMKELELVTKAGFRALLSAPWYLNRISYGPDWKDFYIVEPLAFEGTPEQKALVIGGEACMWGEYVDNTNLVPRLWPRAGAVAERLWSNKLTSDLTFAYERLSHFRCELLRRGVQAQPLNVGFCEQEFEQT", "T1 sequence (P07686 122-556)": "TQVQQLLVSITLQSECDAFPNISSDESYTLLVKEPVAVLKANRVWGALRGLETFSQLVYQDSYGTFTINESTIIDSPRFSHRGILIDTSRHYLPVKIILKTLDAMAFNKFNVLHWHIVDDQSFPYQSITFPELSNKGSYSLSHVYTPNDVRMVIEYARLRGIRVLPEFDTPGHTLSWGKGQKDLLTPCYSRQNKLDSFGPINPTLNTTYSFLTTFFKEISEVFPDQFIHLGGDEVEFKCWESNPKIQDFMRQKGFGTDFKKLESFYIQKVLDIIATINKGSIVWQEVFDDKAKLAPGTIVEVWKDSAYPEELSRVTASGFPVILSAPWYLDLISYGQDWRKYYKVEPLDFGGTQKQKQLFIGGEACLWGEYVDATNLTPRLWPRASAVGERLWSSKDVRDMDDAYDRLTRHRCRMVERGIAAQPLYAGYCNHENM", "conditions": "cited from earlier work"}, "[1]": {"tested_on": "GLA mutants (alpha-galactosidase A)", "conditions": "for enzyme activity of GLA mutants, compound in combination with DGJ: 40 μM compound + 20 μM DGJ, compared to DGJ alone, DGJ-responsive mutants, FIG. 3, FIG. 6"}, "[2]": {"test": "Plasma concentration and absorption (literature)", "format": "in vivo, human", "conditions": "32 mg tablet; estimate"}, "[3]": {"conditions": "cited from earlier work"}, "[4]": {"biological_target": "acid α-glucosidase mutants (Homo sapiens, UniProt P10253, Y455F)", "sequence (P10253 70-952 Y455F)": "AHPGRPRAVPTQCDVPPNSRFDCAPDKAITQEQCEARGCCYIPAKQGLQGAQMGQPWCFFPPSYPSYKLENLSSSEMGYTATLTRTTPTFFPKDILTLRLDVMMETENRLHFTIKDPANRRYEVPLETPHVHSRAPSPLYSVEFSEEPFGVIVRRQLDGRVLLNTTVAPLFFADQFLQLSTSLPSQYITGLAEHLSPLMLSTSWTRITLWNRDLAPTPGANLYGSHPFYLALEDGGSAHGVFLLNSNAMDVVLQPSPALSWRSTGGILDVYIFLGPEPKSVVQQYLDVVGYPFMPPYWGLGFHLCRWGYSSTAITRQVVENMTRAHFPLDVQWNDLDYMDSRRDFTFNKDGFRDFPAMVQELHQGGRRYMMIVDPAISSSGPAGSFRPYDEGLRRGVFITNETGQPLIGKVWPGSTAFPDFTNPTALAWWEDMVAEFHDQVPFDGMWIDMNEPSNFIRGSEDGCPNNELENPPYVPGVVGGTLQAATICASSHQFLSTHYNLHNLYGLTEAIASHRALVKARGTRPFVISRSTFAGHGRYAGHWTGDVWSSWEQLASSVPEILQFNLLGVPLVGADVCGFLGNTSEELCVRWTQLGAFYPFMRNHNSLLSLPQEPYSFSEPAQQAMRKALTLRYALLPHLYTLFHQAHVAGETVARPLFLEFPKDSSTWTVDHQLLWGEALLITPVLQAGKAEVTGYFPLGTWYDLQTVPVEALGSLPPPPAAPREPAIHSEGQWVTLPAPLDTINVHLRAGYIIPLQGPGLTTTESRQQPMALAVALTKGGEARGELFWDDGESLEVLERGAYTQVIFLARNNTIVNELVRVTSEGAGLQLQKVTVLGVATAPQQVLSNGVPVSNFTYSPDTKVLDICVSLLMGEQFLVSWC", "format": "cell-based", "conditions": "20 μM DNJ + 40 μM compound; FIG. 11", "experimental": "(§1) A bacterial clone containing the full length cDNA of […] (IRATp970C0971D, aligned to accession no. NM_000152.3, GeneBank) was received form ImaGenes GmbH, Berlin, Germany. Amplification was performed with the primers 5′-TAGGAGCTGTCCAGGCCATC-3′ (SEQ ID NO:3) and 5′-GAGAGACTAACACACTCCGC-3′ (SEQ ID NO:4). The PCR was carried out using iProof DNA Polymerase (BioRad). The cDNA was subcloned into pCRII TA TOPO vector (Invitrogen). Prior to ligation, the cDNA insert was incubated with Taq polymerase (Qiagen) to add a poly (A) overhang at the 3′-end for TA-cloning. For expression, the GAA cDNA was ligated into target vector pcDNA3.1/V5-His6 (Invitrogen) using sticky end ligation utilizing unique restriction sites (HindIII, XhoI) offered by both vectors multiple cloning sites.\n(§2) Sample preparation was carried out analogously to the α-galactosidase A recordings. As substrate, a 1.3 mg 4-Methylumbelliferyl-α-D-Glukopyranoside/ml solution (in sodium acetate buffer, pH 4.0) was used and 5 μg sample/reaction were added. The reaction was incubated for 60 minutes at 37° C. and stopped with 1M Glycine-NaOH, pH 10.5."}, "mutant GLA [5]": {"tested_on": "mutant GLA", "conditions": "washout two hours prior to assay; cited from earlier work"}, "Alpha-Gal A": {"tested_on": "Alpha-Gal A", "conditions": "grown in the presence of DGJ, cited from earlier work"}, "GLA": {"tested_on": "GLA", "conditions": "patient lymphoblasts; cited from earlier work"}, "GLA[R301G]": {"biological_target": "T2, GLA[R301G] (Homo sapiens, UniProt P06280, R301G)", "T2 sequence (P06280 32-429 R301G)": "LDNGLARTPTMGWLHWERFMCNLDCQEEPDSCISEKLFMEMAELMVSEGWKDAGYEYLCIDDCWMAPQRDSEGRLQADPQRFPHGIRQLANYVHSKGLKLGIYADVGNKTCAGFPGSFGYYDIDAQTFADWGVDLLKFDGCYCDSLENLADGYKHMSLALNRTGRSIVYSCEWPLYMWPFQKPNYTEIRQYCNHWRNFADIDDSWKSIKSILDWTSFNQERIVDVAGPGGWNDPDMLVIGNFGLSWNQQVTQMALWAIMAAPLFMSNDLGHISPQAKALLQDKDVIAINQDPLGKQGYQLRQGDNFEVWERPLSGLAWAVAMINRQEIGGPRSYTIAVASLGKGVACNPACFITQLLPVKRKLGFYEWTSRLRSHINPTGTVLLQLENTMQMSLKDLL", "format": "cell-based"}, "mutant GLA [6]": {"tested_on": "mutant GLA", "conditions": "cell-free; cited from earlier work"}, "GLA[A156V]": {"biological_target": "T3, GLA[A156V] (Homo sapiens, UniProt P06280, A156V)", "T3 sequence (P06280 32-429 A156V)": "T2 sequence (P06280 32-429 R301G) with A125V, G270R", "format": "cell-based", "conditions": "for mutant enzyme activity in combination with DGJ: concentration of SF-54B and SF-55C 10 μM and 40 μM, respectively; for mutant enzyme activity in combination with DGJ, concentration series: increasing concentrations of compound with DGJ, FIG. 10"}, "[7]": {"biological_target": "acid α-glucosidase mutants (Homo sapiens, UniProt P10253, L552P)", "sequence (P10253 70-952 L552P)": "as the sequence (P10253 70-952 Y455F) above, with F386Y, L483P counted along it", "format": "cell-based", "conditions": "20 μM DNJ + 40 μM compound; FIG. 11B", "experimental": "as §1, §2"}, "[8]": {"tested_on": "acid α-glucosidase mutants", "format": "cell-based", "conditions": "20 μM NB-DNJ alone; FIG. 7A", "experimental": "as §1, §2"}, "[9]": {"conditions": "value with superscript 2 (mark not explained)"}, "[10]": {"conditions": "value with superscript 1 (mark not explained)"}}, "note": "Numbering of substitutions follows the chain as printed. “And” between values parts separate entries of the source, which are not always exact repeats. Equal values may be shown once. Read-outs that look alike come from different tables or passages of the source.", "data": [{"molecule": "CC(=O)NC1CNC(CO)[C@@H](O)C1O", "note": "(stereo partly drawn) [2-Acetamido-1,2-dideoxynojirimycin]", "values": [{"measurement": "Ki", "setting": "hexosaminidase A; [9]", "value": 700, "unit": "nM"}]}, {"molecule": "CC(=O)NC1C(O)NC(CO)[C@@H](O)C1O", "note": "(stereo partly drawn) [2-Acetamido-2-deoxynojirimycin (ADNJ), 2-Acetamido-2-deoxynojirimycin]", "values": [{"measurement": "Ki", "setting": "hexosaminidase A; [9]", "value": 5, "unit": "nM"}]}, {"molecule": "CC(=O)NC1CN2CC[C@H](O)C2[C@@H](O)C1O", "note": "(stereo partly drawn) [6-Acetamido-6-deoxycastanospermine]", "values": [{"measurement": "IC50", "setting": "hexosaminidase A; [10]", "value": 500, "unit": "nM"}]}, {"molecule": "CN(Cc1cc(Br)cc(Br)c1N)C1CCCCC1", "note": "[Bromhexine, 2,4-dibromo-6-{[cyclohexyl(methyl)amino]methyl}aniline]", "values": [{"measurement": "difference of protein activity between Bromhexine and DGJ and Ambroxol and DGJ", "setting": "[1]; 40 μM Bromhexine or Ambroxol + 20 μM DGJ, FIG. 6", "value": "no significant difference"}, {"measurement": "alpha-Galactosidase A activity of mutant GLAs, bromhexine alone", "setting": "[1]; 40 μM Bromhexine without DGJ, FIG. 6", "value": "no effect"}, {"measurement": "enzyme activity of GLA mutants, compound in combination with DGJ", "setting": "[1]", "value": "significantly increased"}, {"measurement": "enzyme activity of GLA mutants, compound in combination with DGJ", "setting": "[1]; listed as bromhexine", "value": "increased"}, {"measurement": "resulting concentration referring to blood volume after first pass loss", "setting": "[2]", "value": "approximately 0.7 μM"}, {"measurement": "intestinal absorption", "setting": "[3]; 32 mg tablet (77.6 μmol)", "value": "22-27%"}, {"measurement": "concentration of bromhexine", "setting": "[3]; Bechgaard et al.", "value": 80, "unit": "nM"}, {"measurement": "increase in the activity of acid α-glucosidase mutant Y455F, compound with DNJ compared to DNJ alone", "setting": "[4]", "value": "comparable"}]}, {"molecule": "OC[C@H]1NC[C@H](O)[C@@H](O)[C@H]1O", "note": "[DGJ, 1-Deoxygalactonojirimycin]", "values": [{"measurement": "concentration tolerated without any detectable inhibition of the tested mutant enzyme", "setting": "mutant GLA [5]", "value": "up to 1 mM"}, {"measurement": "Alpha-Gal A activity", "setting": "Alpha-Gal A; other mutations", "value": "unaffected"}, {"measurement": "Alpha-Gal A activity", "setting": "Alpha-Gal A; several mutations", "value": "more than 50 % of normal"}, {"measurement": "concentration beyond which GLA activity decreases", "setting": "GLA", "value": "> 100", "unit": "µM"}, {"measurement": "increase of GLA[R301G] activity", "setting": "GLA[R301G]; 20 μM DGJ without Ambroxol, untreated = 1.0, FIG. 5B", "value": 2.8, "unit": "fold"}, {"measurement": "concentration of DGJ sufficient to reach the level of 20 μM DGJ alone", "setting": "GLA[R301G]; in combination with 40 μM Ambroxol, mutant not named in the block", "value": 4.72, "unit": "µM"}, {"measurement": "share of the DGJ concentration needed compared to DGJ alone", "setting": "GLA[R301G]; in combination with 40 μM Ambroxol, same increase of protein activity", "value": "~25", "unit": "%"}, {"measurement": "clinically achievable concentration", "setting": "[3]; clinical trials, Wu et al.", "value": 10, "unit": "µM"}, {"measurement": "dosages already inhibiting", "setting": "mutant GLA [6]", "value": "below 1 μM"}, {"measurement": "increase of GLA[A156V] activity", "setting": "GLA[A156V]; 20 μM DGJ alone, no Ambroxol, untreated = 1.0, FIG. 5A", "value": "3.8 fold and 4 fold"}, {"measurement": "concentration of DGJ reaching the same effect as 20 μM DGJ alone", "setting": "GLA[A156V]; with 40 μM Ambroxol in addition, GLA[A156V]", "value": 8.9, "unit": "µM"}]}, {"molecule": "CC(=O)N[C@H]1C(O)O[C@H](CO)[C@H](O)[C@@H]1O", "note": "(stereo partly drawn) [N-Acetyl-galactosamine (GalNAc), N-Acetyl-galactosamine]", "values": [{"measurement": "Ki", "setting": "hexosaminidase A; [10]", "value": 1.9, "unit": "nM"}]}, {"molecule": "CN(Cc1cc(C#N)cc(C#N)c1N)C1CCCCC1", "note": "[SF-54B]", "values": [{"measurement": "increase in the activity of acid α-glucosidase mutant Y455F, compound with DNJ compared to DNJ alone", "setting": "[4]", "value": "comparable"}, {"measurement": "mutant enzyme activity in combination with DGJ", "setting": "GLA[A156V]; 20 μM DGJ, FIG. 9", "value": "high increase"}, {"measurement": "mutant enzyme activity in combination with DGJ, concentration series", "setting": "GLA[A156V]", "value": "high increase"}]}, {"molecule": "CN(Cc1cc(C#N)cc(Br)c1N)C1CCCCC1", "note": "[SF-55C]", "values": [{"measurement": "increase in the activity of acid α-glucosidase mutant Y455F, compound with DNJ compared to DNJ alone", "setting": "[4]", "value": "comparable"}, {"measurement": "mutant enzyme activity in combination with DGJ", "setting": "GLA[A156V]; 20 μM DGJ, FIG. 9", "value": "high increase"}, {"measurement": "mutant enzyme activity in combination with DGJ, concentration series", "setting": "GLA[A156V]", "value": "high increase"}]}, {"molecule": "Cc1cc(C)cc(-c2cc(CN(C)C3CCCCC3)c(N)c(-c3cc(C)cc(C)c3)c2)c1", "note": "[SF-80]", "values": [{"measurement": "concentration in combination with DGJ giving an increase as high as Ambroxol at up to 10 μM with DGJ", "setting": "GLA[A156V]; 20 μM DGJ, FIG. 9", "value": 1, "unit": "µM"}]}, {"molecule": "N#Cc1cc(C#N)c(N)c(CNC2CCC(O)CC2)c1", "note": "(stereo not drawn) [SF-124B]", "values": [{"measurement": "increase in the activity of mutant L552P, compound with DNJ compared to DNJ only", "setting": "[7]", "value": "higher"}, {"measurement": "increase in the activity of acid α-glucosidase mutant Y455F, compound with DNJ compared to DNJ alone", "setting": "[4]", "value": "comparable"}]}, {"molecule": "CC(=O)Nc1c(Br)cc(Br)cc1CN(C)C1CCCCC1", "note": "[SF-150B]", "values": [{"measurement": "increase in the activity of mutant L552P, compound with DNJ compared to DNJ only", "setting": "[7]", "value": "higher"}, {"measurement": "increase in the activity of acid α-glucosidase mutant Y455F, compound with DNJ compared to DNJ alone", "setting": "[4]", "value": "higher"}, {"measurement": "mutant enzyme activity in combination with DGJ, concentration series", "setting": "GLA[A156V]", "value": "high increase"}]}, {"molecule": "CC(=O)OC1CCC(NCc2cc(Br)cc(Br)c2N)CC1", "note": "(stereo not drawn) [SF-153B]", "values": [{"measurement": "increase in the activity of mutant L552P, compound with DNJ compared to DNJ only", "setting": "[7]", "value": "higher"}, {"measurement": "increase in the activity of acid α-glucosidase mutant Y455F, compound with DNJ compared to DNJ alone", "setting": "[4]", "value": "higher"}, {"measurement": "mutant enzyme activity in combination with DGJ, concentration series", "setting": "GLA[A156V]", "value": "high increase"}]}, {"molecule": "N-butyl-DNJ [NB-DNJ]", "values": [{"measurement": "enzyme activity of mutations Y455F, P545L and L552P, NB-DNJ", "setting": "[8]", "value": "significantly increased"}]}]}
